From ChEMBL document CHEMBL1145343, “Inhibition of kinesin motor proteins by adociasulfate-2” (J Med Chem, 2006)

Tests used:
[1] = target: T1, Kinesin-like protein KIF11 (Homo sapiens, UniProt P52732); assay: Inhibition of kinesin ATPase activity by enzyme-linked inorganic phosphate detection assay without preincubation
T1 sequence (P52732 whole entry): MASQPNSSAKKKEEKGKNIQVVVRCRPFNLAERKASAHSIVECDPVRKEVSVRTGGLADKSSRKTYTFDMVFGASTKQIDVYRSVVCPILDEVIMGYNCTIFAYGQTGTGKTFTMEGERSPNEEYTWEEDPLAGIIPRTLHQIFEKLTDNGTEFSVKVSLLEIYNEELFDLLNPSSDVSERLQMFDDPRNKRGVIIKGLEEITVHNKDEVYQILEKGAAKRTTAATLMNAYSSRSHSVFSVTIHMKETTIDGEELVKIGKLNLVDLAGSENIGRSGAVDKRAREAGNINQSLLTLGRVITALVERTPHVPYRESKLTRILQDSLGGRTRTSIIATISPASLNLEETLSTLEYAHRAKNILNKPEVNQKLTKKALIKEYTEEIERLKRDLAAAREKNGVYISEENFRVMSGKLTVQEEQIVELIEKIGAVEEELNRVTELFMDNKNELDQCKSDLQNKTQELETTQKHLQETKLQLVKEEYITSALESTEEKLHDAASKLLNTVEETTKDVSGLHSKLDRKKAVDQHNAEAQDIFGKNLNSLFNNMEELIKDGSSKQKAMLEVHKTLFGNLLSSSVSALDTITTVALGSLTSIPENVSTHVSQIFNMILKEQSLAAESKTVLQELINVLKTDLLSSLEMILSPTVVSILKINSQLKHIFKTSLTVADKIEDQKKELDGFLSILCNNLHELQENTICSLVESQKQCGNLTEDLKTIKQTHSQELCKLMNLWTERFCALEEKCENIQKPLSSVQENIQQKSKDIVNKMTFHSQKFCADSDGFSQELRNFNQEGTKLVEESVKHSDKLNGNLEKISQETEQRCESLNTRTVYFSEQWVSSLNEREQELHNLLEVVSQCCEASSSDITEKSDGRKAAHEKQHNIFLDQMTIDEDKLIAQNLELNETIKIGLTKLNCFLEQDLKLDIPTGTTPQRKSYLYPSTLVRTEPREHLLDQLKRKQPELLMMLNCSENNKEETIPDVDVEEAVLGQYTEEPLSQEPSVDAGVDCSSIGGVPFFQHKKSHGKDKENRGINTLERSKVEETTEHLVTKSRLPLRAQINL

[2] = target: T1, Kinesin-like protein KIF11; assay: Inhibition of kinesin ATPase activity by enzyme-linked inorganic phosphate detection assay with 5 mins pre-incubation

With CC1(C)CCC[C@]2(C)O[C@H]3CC[C@@]4(C)[C@@H](CC[C@]5(C)[C@@H]4CC[C@]4(C)c6c(OS(=O)(=O)O)ccc(OS(=O)(=O)O)c6C[C@@H]54)[C@]3(C)CC[C@@H]12 [ADOCIASULFATE-2] the IC50 [1] was 13.9 µM and the IC50 [2] was 7.3 µM.
